Measured values published in US9499493B2, “2,4-pyrimidinediamine compounds and their uses” (Rigel Pharmaceuticals, Inc., priority 2002, dated 2016).
Structures can show the parent of a compound that is named as a salt.

Key:
[1] = test system: cultured human mast cells (CHMC); test: CHMC low cell density IgE activation: tryptase assay; format: cell-based; details: anti-IgE
Procedure, shortened: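 Supernatant tryptase activity, assayed with substrate for 30 min at room temperature, served as the degranulation measure. Mast cells (1000-1500 per well depending on donor) sat 1 hr at 37° C in MT before a 30 min anti-IgE challenge at 37° C.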

[2] = test system: cultured human mast cells (CHMC); test: CHMC low cell density ionomycin activation: tryptase assay; format: cell-based

SMILES	IC50 [1]	IC50 [2]	IC50 ([1]; Dihydrochloride Salt)	IC50 ([2]; Acetic Acid Salt)
O=C(COc1cccc(Nc2ncc(F)c(Nc3cccc(O)c3)n2)c1)NCC(O)CO (stereo not drawn) [R926746, 5-Fluoro-N4-(3-hydroxyphenyl)-N2-[3-(N-2,3-dihydroxypropylamino)carbonylmethyleneoxyphenyl]-2,4-pyrimidinediamine]	0.989 µM	> 10 µM		
NC(=O)COc1cccc(Nc2ncc(F)c(Nc3ccc4c(c3)OCCO4)n2)c1 [R926747, N2-(3-Aminocarbonylmethyleneoxyphenyl)-N4-(3,4-ethylenedioxyphenyl)-5-fluoro-2,4-pyrimidinediamine]	0.213 µM	> 10 µM		
CNC(=O)COc1cc(Nc2ncc(F)c(Nc3ccc4cc[nH]c4c3)n2)ccc1OC [R926752, 5-Fluoro-N4-[(1H)-indol-6-yl]-N2-[4-methoxy-3-[(N-methylamino)carbonylmethyleneoxy]phenyl]-2,4-pyrimidinediamine]	0.338 µM	> 10 µM		
CNC(=O)COc1cccc(Nc2ncc(F)c(Nc3cccc(B(O)O)c3)n2)c1 [R926754, 5-Fluoro-N4-(3-dihydroxyborylphenyl)-N2-[3-[(N-methylamino)carbonylmethyleneoxy]phenyl]-2,4-pyrimidinediamine]	0.388 µM	> 10 µM		
CNC(=O)COc1cc(Nc2ncc(F)c(Nc3ccc(C)c(O)c3)n2)ccc1C [R926759, 5-Fluoro-N4-(3-hydroxy-4-methylphenyl)-N2-[4-methyl-3-[(N-methylamino)carbonylmethyleneoxy]phenyl]-2,4-pyrimidinediamine]	0.688 µM	> 10 µM		
CNC(=O)COc1cc(Nc2ncc(F)c(Nc3ccc(C)c(OCC(=O)NC)c3)n2)ccc1C [R926760, 5-Fluoro-N2,N4-bis[4-methyl-3-[(N-methylamino)carbonylmethyleneoxy]phenyl]-2,4-pyrimidinediamine]	2.89 µM	> 10 µM		
CC(C)(CO)NC(=O)COc1cccc(Nc2ncc(F)c(Nc3ccc4c(c3)OCCO4)n2)c1 [R926764, N4-(3,4-Ethylenedioxyphenyl)-5-fluoro-N2-[3-(N-2-hydroxy-1,1-dimethylethylamino)carboxymethyleneoxyphenyl]-2,4-pyrimidinediamine]	0.252 µM	5.64 µM		
O=C(COc1cccc(Nc2ncc(F)c(Nc3ccc4c(c3)OCCO4)n2)c1)NC1CCCCC1 [R926765, N2-[3-(N-Cyclohexylamino)carbonylmethyleneoxyphenyl]-N4-(3,4-ethylenedioxyphenyl)-5-fluoro-2,4-pyrimidinediamine]	0.324 µM	4.39 µM		
CN(CCO)C(=O)COc1cccc(Nc2ncc(F)c(Nc3ccc4c(c3)OCCO4)n2)c1 [R926766, N4-(3,4-Ethylenedioxyphenyl)-5-fluoro-N2-[3-[N-methyl-N-(2-hydroxyethyl)amino]carbonylmethyleneoxyphenyl]-2,4-pyrimidinediamine]	0.756 µM	> 10 µM		
Oc1cccc(Nc2nc(Nc3ccc4oc(CN5CCNCC5)cc4c3)ncc2F)c1 [R926769, 5-Fluoro-N4-(3-hydroxyphenyl)-N2-[2-(N-piperazinomethylene)benzofuran-5-yl]-2,4-pyrimidinediamine Dihydrochloride Salt]		> 10 µM	1.07 µM	
CCOC(=O)COc1cccc(Nc2nc(Nc3ccc4c(c3)OCCO4)ncc2F)c1 [R926774, N4-(3-Ethoxycarbonylmethyleneoxyphenyl)-N2-(3,4-ethylenedioxyphenyl)-5-fluoro-2,4-pyrimidinediamine]	1.93 µM	7.94 µM		
CCOC(=O)COc1cccc(Nc2nc(Nc3cccc(O)c3)ncc2F)c1 [R926775, N4-(3-Ethoxycarbonylmethyleneoxyphenyl)-5-fluoro-N2-(3-hydroxyphenyl)-2,4-pyrimidinediamine]	3.47 µM	> 10 µM		
CNC(=O)COc1cccc(Nc2nc(Nc3ccc4c(c3)OCCO4)ncc2F)c1 [R926776, N2-(3,4-Ethylenedioxyphenyl)-5-fluoro-N4-[3-(N-methylamino)carbonylmethyeleneoxyphenyl]-2,4-pyrimidinediamine]	0.81 µM	> 10 µM		
O=C(COc1cccc(Nc2ncc(F)c(Nc3ccc4c(c3)OCCO4)n2)c1)N(CCO)CCO [R926781, N2-[3-[N,N-Bis-(2-hydroxyethylamino)]carbonylmethyleneoxyphenyl]-N4-(3,4-ethylenedioxyphenyl)-5-fluoro-2,4-pyrimidinediamine]	0.573 µM	> 10 µM		
O=C(COc1cccc(Nc2ncc(F)c(Nc3ccc4c(c3)OCCO4)n2)c1)NC(CO)CO [R926784, N2-[3-(N-1,3-Dihydroxy-2-propylamino)carbonylmethyleneoxyphenyl]-N4-(3,4-ethylenedioxyphenyl)-5-fluoro-2,4-pyrimidinediamine]	0.252 µM	> 10 µM		
O=C1OCc2ccc(Nc3ncc(F)c(Nc4ccc5c(c4)OCCO5)n3)cc21 [R926786, N2-(1,1-Dihydroisobenzofuran-1-one-6-yl)-N4-(3,4-ethylenedioxyphenyl)-5-fluoro-2,4-pyrimidinediamine]	0.504 µM	> 10 µM		
Oc1cccc(Nc2ncc(F)c(Nc3ccc4c(c3)OC(F)(F)O4)n2)c1 [R926794, N4-(3,4-Difluoromethylenedioxyphenyl)-5-fluoro-N2-(3-hydroxyphenyl)-2,4-pyrimidinediamine]	1.38 µM	> 10 µM		

SMILES	IC50 [1]	IC50 [2]	IC50 ([1]; Dihydrochloride Salt)	IC50 ([2]; Acetic Acid Salt)
CCOC(=O)COc1cccc(Nc2ncc(F)c(Nc3cc(OC)cc(OC)c3)n2)c1 [R926795, N4-(3,5-Dimethoxyphenyl)-N2-(3-ethoxycarbonylmethyleneoxyphenyl)-5-fluoro-2,4-pyrimidinediamine]	2.04 µM	> 10 µM		
CNC(=O)COc1cccc(Nc2ncc(F)c(Nc3cc(OC)cc(OC)c3)n2)c1 [R926796, N4-(3,5-Dimethoxyphenyl)-5-fluoro-N2-[3-(N-methylamino)carbonylmethyleneoxyphenyl]-2,4-pyrimidinediamine]	0.914 µM	> 10 µM		
CCOC(=O)COc1cccc(Nc2ncc(C(=O)OCC)c(Nc3ccc4c(c3)OCCO4)n2)c1 [R926797, N4-(3,4-Ethylenedioxyphenyl)-N2-(3-ethoxycarbonylmethyleneoxyphenyl)-5-ethoxycarbonyl-2,4-pyrimidinediamine]	2.23 µM	> 10 µM		
CCOC(=O)COc1cccc(Nc2ncc(C(=O)OCC)c(Nc3cccc(O)c3)n2)c1 [R926798, N4-(3-Hydroxyphenyl)-N2-(3-ethoxycarbonylmethyleneoxyphenyl)-5-ethoxycarbonyl-2,4-pyrimidinediamine]	2.35 µM	5.87 µM		
CCOC(=O)COc1cccc(Nc2ncc(C(=O)OCC)c(Nc3ccc4c(c3)OC(F)(F)C(F)(F)O4)n2)c1 [R926799, N2-(3-Ethoxycarbonylmethyleneoxyphenyl)-5-ethoxycarbonyl-N4-(3,4-tetrafluoroethylenedioxyphenyl)-2,4-pyrimidinediamine]	> 10 µM	> 10 µM		
CCOC(=O)c1cnc(Nc2cccc(OCC(=O)NC)c2)nc1Nc1ccc2c(c1)OCCO2 [R926800, 5-Ethoxycarbonyl-N4-(3,4-ethylenedioxyphenyl)-N2-[3-(N-methylamino)carbonylmethyleneoxyphenyl]-2,4-pyrimidinediamine]	4.58 µM	> 10 µM		
CCOC(=O)c1cnc(Nc2cccc(OCC(=O)NC)c2)nc1Nc1cc(OC)cc(OC)c1 [R926801, N4-(3,5-Dimethoxyphenyl)-5-ethoxycarbonyl-N2-[3-(N-methylamino)carbonylmethyleneoxyphenyl]-2,4-pyrimidinediamine]	10 µM	> 10 µM		
CCOC(=O)COc1cccc(Nc2nc(Nc3cc(OC)cc(OC)c3)ncc2F)c1 [R926804, N2-(3,5-Dimethoxyphenyl)-N4-(3-ethoxycarbonylmethyleneoxyphenyl)-5-fluoro-2,4-pyrimidinediamine]	1.58 µM	7.11 µM		
Fc1cnc(Nc2cccc(C(F)(F)F)c2)nc1Nc1ccc2c(c1)OCCO2 [R926805]	0.764 µM	> 10 µM		
CCOC(=O)COc1cccc(Nc2ncc(F)c(Nc3ccc(-n4cnc(Cl)c4Cl)cc3)n2)c1 [R926809, N4-[4-(4,5-Dichloro-1H-imidazol-1-yl)phenyl]-5-fluoro-N2-(3-ethoxycarbonylmethyleneoxyphenyl)-2,4-pyrimidinediamine]	0.78 µM	3.05 µM		
CNC(=O)COc1cccc(Nc2nc(Nc3cc(OC)cc(OC)c3)ncc2F)c1 [R926810, N2-(3,5-Dimethoxyphenyl)-N4-[3-(N-methylamino)carbonylmethyleneoxyphenyl)-5-fluoro-2,4-pyrimidinediamine]	1.22 µM	> 10 µM		
O=C(COc1cccc(Nc2ncc(F)c(Nc3ccc4c(c3)OCCO4)n2)c1)NCCOC(=O)CCCCC1SCC2NC(=O)NC21 (stereo not drawn) [R926811, N4-(3,4-Ethylenedioxyphenyl)-5-fluoro-N2-[3-[N-2-(D)-(+)-biotinylethylamino]carbonylmethyleneoxyphenyl]-2,4-pyrimidinediamine]	3.66 µM	> 10 µM		
CNC(=O)COc1cccc(Nc2ncc(F)c(Nc3ccc(-n4cnc(Cl)c4Cl)cc3)n2)c1 [R926812, N4-[4-(4,5-Dichloro-1H-imidazol-1-ylphenyl)]-5-fluoro-N2-[3-(N-methylamino)carbonylmethyleneoxyphenyl]-2,4-pyrimidinediamine]	0.185 µM	> 10 µM		
CNC(=O)c1cc2cccc(Nc3ncc(F)c(Nc4ccc5c(c4)OCCO5)n3)c2[nH]1 [R926815]	1.18 µM	> 10 µM		
CNC(=O)COc1cccc(Nc2ncc(F)c(Nc3ccc4c(c3)OCCO4)n2)c1 [R926826, N4-(3,4-Ethylenedioxyphenyl)-5-fluoro-N2-[3-(N-methylamino)carbonylmethyleneoxyphenyl]-2,4-pyrimidinediamine Trifluoro Acetic Acid Salt]	0.613 µM			> 10 µM
CCOc1ccc(Nc2nc(Nc3cccc(OCC(=O)NC)c3)ncc2F)cc1 [R926827, N4-(4-Ethoxyphenyl)-5-fluoro-N2-[3-(N-methylamino)carbonylmethyleneoxyphenyl]-2,4-pyrimidinediamine]	1.1 µM	> 10 µM		
